Test results as given in patent US4162305A, “Antibiotic XK-99 and process for production thereof” (Abbott Laboratories, priority 1977, dated 1979).
Values after ≈ are worked out from the molar mass of the structure shown. Where two headings read alike, the source gives them in different places. Numbered stars: 1 amine (or outer) side, 2 acyl side, 3 side chain; on linkers, the order of the positions; unused ones are H or OH. Bridge positions count the residues as written; N and C are the ends. Square brackets hold non-standard residues; d marks the D form. Peptide text beside a SMILES is read from it. I, II: the chains in the order shown. Actinocin(9to1) = Cc1c2oc3c(C)ccc(C(=O)[*:1])c3nc-2c(C(=O)[*:2])c(N)c1=O; NMeV = CN[C@H](C(=O)O)C(C)C; Sar = CNCC(=O)O

Key:
Staphylococcus aureus = experiment: Comparative antibacterial activity (MIC), agar dilution method, measured simultaneously; format: cell-based; conditions: for Antibacterial activity [C], ratio of [A] to [B]: MIC Staphylococcus aureus / MIC Bacillus subtilis; for MIC / Antibacterial activity [A] (minimum inhibition concentration, MIC): Staphylococcus aureus; for MIC: read-out: Antibacterial activity [A] (minimum inhibition concentration, MIC)
Experimental: (§1) A comparative study of XK-99 with these antibiotics was conducted according to several procedures.
(§2) ^1 Antibacterial activities (minimum inhibition concentration, MIC,
(§3) γ/ml) of the individual antibiotics measured simultaneously
according to agar dilution method against [A] Staphylococcus aureus and […]

Bacillus subtilis = experiment: as above; format: cell-based; conditions: for MIC: read-out: Antibacterial activity [B] (minimum inhibition concentration, MIC)
Experimental: as §1, §2, §3
according to agar dilution method against [A] Staphylococcus aureus and
[B]Bacillus subtilis, and [C] ratio of [A] to
^2 Rf values of the individual antibiotics on paper chromatography, […]

[1] = agar dilution method, measured simultaneously

| Compound | Antibacterial activity [C], ratio of [A] to [B] (Staphylococcus aureus) | MIC (Staphylococcus aureus) [µg/mL] | MIC (Bacillus subtilis) [µg/mL] | Antibacterial activity [A] (minimum inhibition concentration, MIC) (Staphylococcus aureus; [1]) [µg/mL] | Antibacterial activity [B] (minimum inhibition concentration, MIC) (Bacillus subtilis; [1]) [µg/mL] | MIC (Staphylococcus aureus; [1]) [µg/mL] | MIC (Bacillus subtilis; [1]) [µg/mL] |
| --- | --- | --- | --- | --- | --- | --- | --- |
| Cc1c2oc3c(C)ccc(C(=O)N[C@@H]4C(=O)N[C@H](C(C)C)C(=O)N5CCC[C@H]5C(=O)N(C)CC(=O)N(C)[C@@H](C(C)C)C(=O)O[C@@H]4C)c3nc-2c(C(=O)N[C@@H]2C(=O)N[C@H](C(C)C)C(=O)N3CCC[C@H]3C(=O)N(C)CC(=O)N(C)[C@@H](C(C)C)C(=O)O[C@@H]2C)c(N)c1=O [Actinomycin D] (I: T[dV]P[Sar][NMeV] / II: T[dV]P[Sar][NMeV]; ester I:1-I:C, II:1-II:C; linker I:N-II:N via Actinocin(9to1)) | 4 | 0.084 (≈ 0.0669 µM) | 0.021 (≈ 0.0167 µM) | – | – | – | – |
| CO[C@H]1/C=C/O[C@@]2(C)Oc3c(C)c(O)c4c(c3C2=O)C(=O)C=C(NC(=O)/C(C)=C\C=C\[C@H](C)[C@H](O)[C@@H](C)[C@@H](O)[C@@H](C)[C@H](OC(C)=O)[C@@H]1C)C4=O [Rifamycin S] | < 0.05 | – | – | < 0.0045 | 0.09 | – | – |
| Halomicin B | < 0.05 | – | – | < 0.0045 | 0.09 | – | – |
| COc1cccc2c1C(=O)c1c(O)c3c(c(O)c1C2=O)C[C@@](O)(C(=O)CO)C[C@@H]3O[C@H]1C[C@H](N)[C@H](O)[C@H](C)O1 [Adriamycin] | 8 | – | – | – | – | 5.6 (≈ 10.3 µM) | 0.7 (≈ 1.29 µM) |
| Acrasinomycin | 4 | – | – | 0.68 | 0.17 | – | – |
| COc1cccc2c1C(=O)c1c(O)c3c(c(O)c1C2=O)C[C@@](O)(C(C)=O)C[C@@H]3O[C@H]1C[C@H](N)[C@H](O)[C@H](C)O1 [Daunomycin] | 4 | – | – | – | – | 2.8 (≈ 5.31 µM) | 0.7 (≈ 1.33 µM) |
